Here are results for four molecules from patent publication US7371372B2, “Compositions comprising IMPDH inhibitors and uses thereof for treating HCV infection” (Vertex Pharmaceuticals Incorporated, priority 2004, dated 2008).

≈ marks a conversion by molar mass, not a printed value. Read-outs that look alike come from different tables or passages of the source. Marks after values point to notes of the source that are not given here.

Data set [1] has as its system HCV. To be noted: 1000 mg BID with PEGASYS, cited from earlier work.
Data set [2] is described as follows: anti-viral activity (IC50av). The data set is classed as cell-based. Particulars: for IC50: read-out: IC50av.
Excerpt: The ratio of IC50av/IC50ap is the Conversion Factor (“CV”), useful in converting an anti-proliferative response into an anti-viral response.
The test system of another data set is IMPDH. Particulars: estimated from Brunet et al.; cited from earlier work.
The test system of data set [3] is peripheral blood lymphocytes (PBLs). The data set can be described thus: anti-proliferative activity (IC50ap): inhibition of proliferation of peripheral blood lymphocytes. Format: cell-based. Particulars: for IC50: Lymphocyte. An excerpt: Our algorithm predicts that there exists an optimal balance between the antiproliferative activity and the antiviral activity for ribavirin in combination with IFN. […] Per our algorithm described above, a “conversion factor” of 12.25 needs to be applied to the APQ to account for antiviral effects as distinct from the antiproliferative effects of ribavirin. Thus the corrected APQ (i.e. AAQ) for ribavirin ranges from 0.3 to 1.6.

The conditions of data set [4]: cited from earlier work; for Cmin: estimated from Brunet et al.
Data set [5] deals with HCV. The data set can be described thus: Interferon alpha 2b (INTRON A) and VX-497 in naive HCV patients, four week study (VX-497-003). Format: in vivo, human. Particulars: for % HCV RNA drop: genotype 1 naive patients. From the text: Given the lower FQ for RBV in table 2 above, once again a surprising result of lower FQ giving better antiviral effects is seen.
In data set [6] the test system is HCV. Particulars: cited from earlier work; for sustained response (SR): IFN + ribavirin, two phase III trials; for HCV RNA drop: Ribavirin 600 mg BID with INTRON A, SR data from McHutchison and Poynard (1999).
The nature of data set [7]: plasma concentrations Cavg and Cmin of the IMPDH inhibitor in human. The data set is classed as in vivo. From the text:
An optimal composition according to the present invention comprises alpha-interferon or a derivative thereof, an IMPDH inhibitor and a pharmaceutical carrier, wherein said IMPDH inhibitor is present in said composition in an amount such that a ratio of Cavg/Cmin is between 1 to 10; • wherein: • Cavg is average steady-state plasma concentration produced by said IMPDH inhibitor in said human; and • Cmin is estimated trough concentration produced by said IMPDH inhibitor in said human.
Cavg is equal to AUC/T, wherein AUC is the area under the plasma concentration-time curve during a dosing interval of time T. Cavg and Cmin are readily determined by known techniques in the art. See, e.g., Gibaldi, M. and Perrier, D., Pharmacokinetics, 2nd Ed., Marcel Dekker, Inc. (1982); Khakoo, S. et al., Br. J. Clin. Pharmacol.46, pp. 563-570 (1998); Glue, P., Sem. Liver. Dis. 19, pp. 17-24 (1999).

The mark [8] stands for this setting: Ribavirin 200 mg BID, estimated from literature kinetics.
Where [9] appears, read: Ribavirin 400 mg BID, estimated from literature kinetics.

Turning to `COc1c(C)c2c(c(O)c1C/C=C(\C)CCC(=O)OCCN1CCOCC1)C(=O)OC2` [mycophenolate mofetil], in the data set on HCV [1] (four-week analysis), the “proportion of patients achieving significant antiviral effects, compared to PEGASYS and RBV” value was “lower proportion of patients achieving significant antiviral effects”.

On to `COc1c(C)c2c(c(O)c1C/C=C(\C)CCC(=O)O)C(=O)OC2` [MPA, mycophenolic acid], for which the IC50 in data set [2] (anti-viral activity, micromolar IC50 converted to ng/mL using molecular weight of 320) was found to be 0.122 µg/mL (≈ 0.381 µM); in data set [3] (in vitro, read-out: IC50ap (ng/mL) in vitro), 32 ng/mL. Moreover, the “% HCV RNA drop” value with HCV [1] (non-responders to REBETRON with 90% genotype 1 patients) was 31^a, %; with HCV [1] (relapsers on REBETRON with 79% genotype 1 patients) it was 72^b %. In addition, in the data set on IMPDH, the “IC50ap (ng/mL) in vivo” value is 10800 ng/mL (≈ 33.7 µM). Also, the Cmin in data set [4] (MPA 500 mg BID) is reported as 1630 ng/mL; in data set [4] (MPA 750 mg BID), 1400 ng/mL; in data set [4] (MPA 1000 mg BID), 2060 ng/mL. Moreover, the Cavg in data set [4] (MPA 500 mg BID, from Brunet et al.) is listed as 3163 ng/mL; in data set [4] (MPA 750 mg BID, from Brunet et al.), 3425 ng/mL; in data set [4] (MPA 1000 mg BID, median AUC(0-t)/dosing interval from Brunet et al.), 3869 ng/mL.

Take `COc1cc(NC(=O)Nc2cccc(CNC(=O)O[C@H]3CCOC3)c2)ccc1-c1cnco1` [VX-497]: in data set [2] (anti-viral activity, micromolar IC50 converted to ng/mL using molecular weight 452), the IC50av was found to be 0.14 µg/mL (≈ 0.309 µM). In addition, the IC50ap in data set [3] came out at 0.045 µg/mL. Moreover, the “% HCV RNA drop” value in the data set on HCV [5] (VX-497 100 mg TID with INTRON A for 4 weeks) is 53%; in the data set with HCV [5] (VX-497 300 mg TID with INTRON A for 4 weeks) it was 50%. Also, in the data set with HCV [5] (with 3 MU IFN alpha 2b tiw, four weeks, baseline HCV RNA as covariate), the “reduction in viral load, 100 mg TID compared with 300 mg TID” value is reported as “higher reduction in viral load”.

Take `NC(=O)c1ncn([C@@H]2O[C@H](CO)[C@@H](O)[C@H]2O)n1` [Ribavirin, ribavirin]: the “sustained response (SR)” value in the data set with HCV [6] (genotype 1 patients) is given as “around 30%”; with HCV [6] (non-genotype 1 patients), around 60%. Moreover, the hemolytic anemia result in the data set with HCV [6] (MTD of ribavirin) is “significant hemolytic anemia”. Moreover, the results for the “HCV RNA drop” value in the data set with HCV [6] (genotype 1) and in the data set on HCV [6] (non-genotype 1) were 30%^a, and 60%^b, respectively. In the data set on HCV [6] (to 600 mg daily, with IFN), the “change in SR on dropping the ribavirin dose by one-half” value is recorded as “no significant change in SR”. Besides, the results for the IC50 in data set [2] and in data set [3] (read-out: IC50ap) were 12 µg/mL (≈ 49 µM) and 976 ng/mL, respectively. The Cavg is 3542 ng/mL in data set [7] (setting [8]); 7083 ng/mL in data set [7] (setting [9]); 19000 ng/mL in data set [7] (Ribavirin 600 mg BID, estimated from single dose kinetics (Glue) and accumulation factor (Khakoo), AUC(0-t)/dosing interval). Further, the Cmin in data set [7] (setting [8]) is on record as 740 ng/mL; in data set [7] (setting [9]), 1450 ng/mL; in data set [7] (Ribavirin 600 mg BID, estimated from literature kinetics) it was 2250 ng/mL.
